Starred links: 1 amine or outer side, 2 acyl side, 3 side chain; linkers in the order of their positions; H or OH if unused. Non-standard residues stand in square brackets, D forms with d. Residues, ends and D or L forms follow the SMILES beside them. No end group written: not given here. Phe(2-(2-methyl-1-propenyl)) = CC(C)=Cc1ccccc1C[C@H](N[*:1])C(=O)[*:2]; Phe(2-(3-thienyl)) = O=C([C@H](Cc1ccccc1-c1ccsc1)N[*:1])[*:2]; Phe(2-Ph) = N[C@@H](Cc1ccccc1-c1ccccc1)C(=O)O; Dmt = Cc1cc(O)cc(C)c1C[C@H](N)C(=O)O

Consider twelve molecules from article PMC6005765 (Bioorganic & medicinal chemistry letters, 2018).

The target in one assay is μ opioid receptor (MOP) (Homo sapiens, UniProt P35372). Type of assay: binding. The settings on record: for Selectivity IC50δ/IC50μ: ratio DOP IC50 / MOP IC50.
μ opioid receptor (MOP), sequence (P35372 whole entry, species assumed): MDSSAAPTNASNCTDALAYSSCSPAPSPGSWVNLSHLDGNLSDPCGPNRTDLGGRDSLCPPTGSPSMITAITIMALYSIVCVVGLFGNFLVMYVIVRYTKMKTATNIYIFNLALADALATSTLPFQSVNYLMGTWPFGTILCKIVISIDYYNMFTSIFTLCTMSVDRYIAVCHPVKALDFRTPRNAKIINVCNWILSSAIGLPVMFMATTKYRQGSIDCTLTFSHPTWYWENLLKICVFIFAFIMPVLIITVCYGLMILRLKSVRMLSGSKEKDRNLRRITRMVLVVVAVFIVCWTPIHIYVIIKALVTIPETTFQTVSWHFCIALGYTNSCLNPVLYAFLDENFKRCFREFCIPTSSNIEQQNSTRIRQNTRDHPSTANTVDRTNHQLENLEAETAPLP
The target in a further assay is δ opioid receptor (DOP) (Homo sapiens, UniProt P41143). Type of assay: binding.
Assay [1] concerns guinea pig ileum (GPI), MOP. The settings on record: read-out: IC50 (GPI); agonist potency.
A further assay deals with MOP (Homo sapiens, UniProt P35372). Kind of assay: EPAC cAMP BRET-based biosensor assay, MOP. Type of assay: cell-based.
MOP, sequence (P35372 whole entry): as the sequence (P35372 whole entry, species assumed) above
The next assay deals with DOP (Homo sapiens, UniProt P41143). Kind of assay: EPAC cAMP BRET-based biosensor assay, DOP. In kind it is cell-based. Background: BRET reads energy transfer from a luciferase to a nearby fluorophore.
Another assay deals with rats. Kind of assay: Tail-flick test on rats after intrathecal administration. Type of assay: in vivo, rat. (In hot-plate and tail-flick tests a longer latency is read as antinociception.)
The target of assay [2] is δ opioid receptor (UniProt P41143).
The target in assay [3] is μ opioid receptor (UniProt P35372).
For assay [4], the target named is δ opioid receptor (UniProt P41143). This is another data set of the same source.
Assay [5] has the same target. Kind of assay: radioligand binding.
Assay [6] has as its target μ opioid receptor (UniProt P35372). Kind of assay: radioligand binding.
Assay [7] has the same target. This is another data set of the same source.

Regarding `Cc1cc(O)cc(C)c1C[C@H](N)C(=O)N[C@H](CCCNC(=N)N)C(=O)N[C@@H](Cc1ccccc1-c1ccc(F)cc1)C(=O)NCC(N)=O` [Compound 12, Dmt-D-Arg-Phe(2-(4-F-phenyl))-Gly-NH2], the results for the IC50 (on μ opioid receptor (MOP); at δ opioid receptor (DOP); in assay [1]) were 0.47 ± 0.06 nM, 435 ± 26 nM and 0.801 ± 0.086 nM, respectively. In addition, the “Selectivity IC50δ/IC50μ” value at μ opioid receptor (MOP) was determined as 925.
Regarding `Cc1cc(O)cc(C)c1C[C@H](N)C(=O)N[C@H](CCCNC(=N)N)C(=O)N[C@@H](Cc1ccccc1-c1ccc(C(F)(F)F)cc1)C(=O)NCC(N)=O` [Compound 11, Dmt-D-Arg-Phe(2-(4-CF3-phenyl))-Gly-NH2], the results for the 50% inhibitory concentration (IC50) (on μ opioid receptor (MOP); against δ opioid receptor (DOP); in [1]) were 0.07 ± 0.09 nM, 39.2 ± 17 nM and 1.26 ± 0.17 nM, respectively. For the same molecule, at μ opioid receptor (MOP), the “Selectivity IC50δ/IC50μ” value was found to be 560. Besides, the results for the EC50 at MOP and at DOP were 0.12 ± 0.05 nM and 26.8 ± 6 nM, respectively.
As to `CC(C)=Cc1ccccc1C[C@H](NC(=O)[C@@H](CCCNC(=N)N)NC(=O)[C@@H](N)Cc1c(C)cc(O)cc1C)C(=O)NCC(N)=O` [Compound 14], the “Duration of analgesic action on thermal nociception” value (shortened to “Duration of analgesic action”) in the assay on rats was “exceeding 60 min”.
As for `COc1ccc(-c2ccccc2C[C@H](NC(=O)[C@@H](CCCNC(=N)N)NC(=O)[C@@H](N)Cc2c(C)cc(O)cc2C)C(=O)NCC(N)=O)cc1` [Compound 10, Dmt-D-Arg-Phe(2-(4-MeO-phenyl))-Gly-NH2], the IC50 was determined as 0.47 ± 0.24 nM against μ opioid receptor (MOP), 70.2 ± 27.2 nM against δ opioid receptor (DOP) and 0.901 ± 0.224 nM in [1]. The “Selectivity IC50δ/IC50μ” value at μ opioid receptor (MOP) is reported as 149.
`Cc1cc(O)cc(C)c1C[C@H](N)C(=O)N[C@H](CCCNC(=N)N)C(=O)N[C@@H](Cc1ccccc1)C(=O)NCC(N)=O` [Compound 19, Dmt-D-Arg-Phe-Gly-NH2] (H-[Dmt][dR]FG-NH2): at μ opioid receptor (MOP), the “Fold increase in MOP affinity compared to DAMGO” value is 10 fold, the half-inhibitory concentration (IC50) stood at 0.1 ± 0.06 nM and the “Selectivity IC50δ/IC50μ” value was found to be 140. 14 ± 2.7 nM corresponded to half-maximal inhibition against δ opioid receptor (DOP) (IC50). In addition, the IC50 in [1] is 2.26 ± 0.37 nM. The EC50 at MOP was determined as 0.008 ± 0.002 nM. Also, the 50% effective concentration (EC50) at DOP came to 1.13 ± 0.2 nM. In addition, in the assay on rats, the “Duration of analgesic action” value is “exceeding 60 min” and the “Effectiveness in reversing nociceptive behavior relative to DAMGO” value turned out to be 10 times.
In the case of `Cc1cc(O)cc(C)c1C[C@H](N)C(=O)N[C@H](C)C(=O)N[C@@H](Cc1ccccc1)C(=O)NCC(N)=O` [Compound 20, Dmt-D-Ala-Phe-Gly-NH2] (H-[Dmt][dA]FG-NH2), at μ opioid receptor (MOP), the “Fold increase in MOP affinity compared to DAMGO” value turned out to be 10 fold, the 50% inhibitory concentration (IC50) worked out at 0.14 ± 0.05 nM and the “Selectivity IC50δ/IC50μ” value is 161. Also, the IC50 at δ opioid receptor (DOP) was found to be 22.6 ± 4.6 nM. In addition, the IC50 in [1] came to 1.5 ± 0.12 nM. Moreover, the midpoint of the response at MOP, the EC50, lay at 0.012 ± 0.0007 nM. Besides, the half-maximal effective concentration (EC50) at DOP came out at 2.4 ± 1 nM. For the same molecule, in the assay on rats, the “Duration of analgesic action” value was “exceeding 60 min” and the “Effectiveness in reversing nociceptive behavior relative to DAMGO” value came to 10 times.
As for `Cc1cc(O)cc(C)c1C[C@H](N)C(=O)N[C@H](CCCNC(=N)N)C(=O)N[C@@H](Cc1ccccc1-c1ccc(Cl)cc1)C(=O)NCC(N)=O` [Compound 13, Dmt-D-Arg-Phe(2-(4-Cl-phenyl))-Gly-NH2], the IC50 worked out at 0.35 ± 0.06 nM at μ opioid receptor (MOP), 346 ± 10 nM against δ opioid receptor (DOP) and 2.39 ± 0.09 nM in [1]. Moreover, the “Selectivity IC50δ/IC50μ” value on μ opioid receptor (MOP) amounted to 989.
For the molecule `C=Cc1ccccc1C[C@H](NC(=O)[C@@H](C)N(C)C(=O)[C@@H](N)Cc1c(C)cc(O)cc1C)C(=O)NCC(N)=O` [Compound 18, Dmt-N-Me-D-Ala-Phe(2-vinyl)-Gly-NH2], the half-maximal inhibitory concentration (IC50) against μ opioid receptor (MOP) is 0.36 ± 0.09 nM; on δ opioid receptor (DOP), 59.4 ± 0.8 nM; in [1], 0.641 ± 0.045 nM. The “Selectivity IC50δ/IC50μ” value at μ opioid receptor (MOP) is 165. The EC50 worked out at 0.003 ± 0.004 nM at MOP and 4.4 ± 2 nM on DOP.
In the case of `Cc1cc(O)cc(C)c1C[C@H](N)C(=O)N[C@H](C)C(=O)N[C@@H](Cc1ccccc1-c1ccccc1)C(=O)NCC(N)=O` [Compound 15, Dmt-D-Ala-Phe(2-phenyl)-Gly-NH2] (H-[Dmt][dA][Phe(2-Ph)]G-NH2), the “Duration of analgesic action” value with rats is given as “exceeding 60 min”.

B1: Dmt-D-Arg-Phe(2-(2-methyl-1-propenyl)-Gly-NH2 (peptide)
peptide: [Dmt][dR][Phe(2-(2-methyl-1-propenyl))]G-NH2
modifications: N-terminus assumed
SMILES: CC(C)=Cc1ccccc1C[C@H](NC(=O)[C@@H](CCCNC(=N)N)NC(=O)[C@@H](N)Cc1c(C)cc(O)cc1C)C(=O)NCC(N)=O
Turning to B1, the IC50 in the mouse vas deferens (MVD) assay in the assay with δ opioid receptor [2] turned out to be 0.63 nM. The same molecule showed an IC50 in the guinea pig ileum (GPI) assay in the assay with μ opioid receptor [3] of 0.701 nM. Further, the EPAC DOP EC50 (EPAC cAMP BRET-based biosensor assay) with δ opioid receptor [4] came to 19.4 nM. Further, the figures for the half-maximal inhibitory concentration (IC50) with δ opioid receptor [5] and in the assay with μ opioid receptor [6] were 585 nM and 0.57 nM, respectively.

B2: Dmt-D-Ala-Phe(2-(3-thienyl))-Gly-NH2 (peptide)
peptide: [Dmt][dA][Phe(2-(3-thienyl))]G-NH2
modifications: N-terminus assumed
SMILES: Cc1cc(O)cc(C)c1C[C@H](N)C(=O)N[C@H](C)C(=O)N[C@@H](Cc1ccccc1-c1ccsc1)C(=O)NCC(N)=O
In turn, B2 yielded an IC50 in the mouse vas deferens (MVD) assay with δ opioid receptor [2] of 2.16 nM. The molecule also gave an IC50 in the guinea pig ileum (GPI) assay with μ opioid receptor [3] of 1.27 nM. Moreover, in the assay with μ opioid receptor [7], the EPAC MOP EC50 (EPAC cAMP BRET-based biosensor assay) was determined as 34.8 nM. For the same molecule, the half-maximal inhibitory concentration (IC50) in the assay with δ opioid receptor [5] was 687 nM; with μ opioid receptor [6], 240 nM.

B3: Dmt-D-Ala-Phe-Gly-NH2 (peptide)
peptide: [Dmt][dA]FG-NH2
modifications: N-terminus assumed
SMILES: Cc1cc(O)cc(C)c1C[C@H](N)C(=O)N[C@H](C)C(=O)N[C@@H](Cc1ccccc1)C(=O)NCC(N)=O
In the case of B3, in the assay with δ opioid receptor [2], the IC50 in the mouse vas deferens (MVD) assay is 1.15 nM. In the assay with μ opioid receptor [3], this molecule registered an IC50 in the guinea pig ileum (GPI) assay of 1.5 nM. Further, the EPAC DOP EC50 (EPAC cAMP BRET-based biosensor assay) with δ opioid receptor [4] is 2.4 nM. The EPAC MOP EC50 (EPAC cAMP BRET-based biosensor assay) in the assay with μ opioid receptor [7] came out at 0.012 nM.

The term IC50 denotes the concentration needed to halve the response being measured. As a reminder, the EC50 is the concentration at which the effect is half-maximal. Read a high EC50 as lower potency in that assay.
